Legend:
eIF2α/ATF4 pathway = test: Western blot / qRT-PCR of phospho-eIF2α/ATF4 pathway; assay type: cell-based
Procedure: Western blotting was performed as previously described (Battle T E, Arbiser J, & Frank D A (2005) The natural product honokiol induces caspase dependent apoptosis in B-cell chronic lymphocytic leukemia (B-CLL) cells. Blood 106(2):690-697). Antibodies to phospho-MAPK (9101), total MAPK (9102), phospho-Y705 STAT3 (9131), phospho-S6 (2215), total S6 (2217), phospho-4E-BP1 (9451), total 4E-BP1 (9644), total RSK (9355), phospho-S6K (9234, 85 used at 1:5000), total S6K (2708), phospho-eIF2α (9721, used at 1:1000), total eIF2α (5324), ATF4 (11815, used at 1:1000), PDGFRβ (3169), IGF1Rβ (9750), EGFR (2232), and HER2 (2242) were from Cell Signaling Technology. Phospho-RSK antibody was from R&D (AF889). Antibodies to total STAT3 (sc-482) and gp130 (sc-656, used at 1:1000) were from Santa Cruz Biotechnology. Phospho-S727 STAT3 antibody was described previously (229). REDD1 antibody was from Proteintech (10638-1-AP, used at 1:1000). Antibody recognizing full-length and cleaved ATF6 was from Abcam (ab122897, used at 1:1000). Antibodies to tubulin (T5168) and beta actin (A5316) were from Sigma. All antibodies were used at 1:10000 dilution for western blot unless otherwise noted. For immunoprecipitations, cells were lysed in 500 μl lysis buffer (0.5% NP-40, 150 mM NaCl, 50 mM Tris pH 7.5, with protease and phosphatase inhibitors freshly added at 1:100 [Pierce, PI78443]) on ice for 15 minutes, then centrifuged for 10 minutes at 14,000 RPM and 4° C. The supernatant was transferred to a new tube and incubated with 10 μl JAK2 antibody (Santa Cruz sc-278) or a mix of two TYK2 antibodies, 10 μl of each (Santa Cruz sc-5271 and Cell Signaling Technology 9312). Immunoprecipitation was performed overnight at 4° C. with rotation. The next day, 75 μl of protein A/G beads (Santa Cruz sc-2003) were washed twice in lysis buffer, then incubated with immunoprecipitates overnight as before. The next day, the beads were spun down (1 min. at 7,500 RPM and 4° C.) and washed 3 times with 650 μl lysis buffer for 10 minutes at 4° C. with rotation, then boiled in 50 μl sample buffer+10% β-mercaptoethanol. For Western blot, 20 μl were loaded per lane. For detection of phospho-tyrosine, a mixture of two pan-phospho-tyrosine antibodies (Cell Signaling Technology 9411 and 9416, 1:1000 of each) was used. Antibody to phospho-Y1007/1008 JAK2 was from Cell Signaling 86 Technology (3771, used at 1:1000). Antibody to phospho-Y570 JAK2 was from Millipore (09-241, used at 1:1000). Luminometric Assays Luciferase reporter cell lines were described previously (186). Firefly luciferase values were normalized by concurrent cell viability. Cell viability was measured as ATP-dependent luminescence by Cell Titer Glo (Promega).
In asking how atovaquone induces REDD1, a possible role for ATF4, which regulates REDD1 expression was considered. ATF4 is regulated mainly at the level of translation and is induced upon phosphorylation of eIF2α. […] K562 and AML2 cells, which lack STAT3 activation, were treated with rapamycin for 72 hours. […] For these reasons, it was hypothesized that atovaquone induces eIF2α phosphorylation, with a resulting increase in ATF4 protein and signaling. U266, K562, and SKBR3 cells were treated with atovaquone (20, 20, 25 μM respectively). […] The phospho-eIF2α/ATF4 pathway represents one branch of the UPR, whose other branches consist of ATF6 cleavage and IRE1-mediated XBP1 splicing. […] Thus, atovaquone selectively activates the phospho-eIF2α/ATF4 branch of the UPR. […]

[1] = test system: acute myeloid leukemia (AML); test: Retrospective analysis of atovaquone exposure in AML patients after HSCT; assay type: in vivo, human
Procedure: Atovaquone start and end dates for approximately 500 AML patients who underwent HSCT at Dana-Farber Cancer Institute from 2006-2012 were obtained by chart review of the electronic medical record with DFCI IRB approval. Atovaquone was administered as a suspension, 750 mg twice daily. Due to the intermittent atovaquone dosing for some patients, a discontinuation for longer than 50 days disqualified subsequent atovaquone treatment from counting toward a patient's total atovaquone exposure. Patients who received more than one HSCT were excluded (4% of total patients).
The patient population consisted of AML patients treated with HSCT at the Dana-Farber Cancer Institute and who survived at least 150 days after transplant without relapse. Patients treated with atovaquone for at least 100 days within the 150-day period were classified as “high atovaquone” exposure, while the remaining patients were classified as “low atovaquone” exposure. […] To further investigate the anti-cancer activity of atovaquone in patients, serum samples were collected from patients approximately 100 days following HSCT who were being treated with either TMP-SMX or atovaquone. […] Atovaquone is a colored compound, and its presence in patient plasma is visibly noticeable.

gp130 = test: Western blot of total gp130; assay type: cell-based
Procedure: Western blotting was performed as previously described (Battle T E, Arbiser J, & Frank D A (2005) The natural product honokiol induces caspase dependent apoptosis in B-cell chronic lymphocytic leukemia (B-CLL) cells. Blood 106(2):690-697). Antibodies to phospho-MAPK (9101), total MAPK (9102), phospho-Y705 STAT3 (9131), phospho-S6 (2215), total S6 (2217), phospho-4E-BP1 (9451), total 4E-BP1 (9644), total RSK (9355), phospho-S6K (9234, 85 used at 1:5000), total S6K (2708), phospho-eIF2α (9721, used at 1:1000), total eIF2α (5324), ATF4 (11815, used at 1:1000), PDGFRβ (3169), IGF1Rβ (9750), EGFR (2232), and HER2 (2242) were from Cell Signaling Technology. Phospho-RSK antibody was from R&D (AF889). Antibodies to total STAT3 (sc-482) and gp130 (sc-656, used at 1:1000) were from Santa Cruz Biotechnology. […] Cell viability was measured as ATP-dependent luminescence by Cell Titer Glo (Promega).
Since atovaquone reduced gp130 expression at the cell surface, it was asked whether this effect was accompanied by reduced total gp130 in the cell. To address this question, a time course of atovaquone treatment was performed and total cellular gp130 was measured by Western blotting in U266 cells treated with atovaquone at 20 μM. […]
MEF, MDA-MB-468, and SKBR3 cells were treated with atovaquone (25 μM) for 6 or 12 hours, then analyzed by Western blot for expression of gp130 and various other receptors. […]

[2] = U266, K562, SKBR3, 20, 20, 25 μM

Q: How did the CHAC1 expression (eIF2α/ATF4 pathway) turn out when `O=C1C(O)=C([C@H]2CC[C@H](c3ccc(Cl)cc3)CC2)C(=O)c2ccccc21` [atovaquone, trans-2-[4-(4-chlorophenyl)cyclohexyl]-3-hydroxy-1,4-naphthalenedione] was run?
A: consistently upregulated

Q: And the CHOP expression (eIF2α/ATF4 pathway)?
A: strongly upregulates CHOP

Q: What about the “expression of ATF4 mRNA” value (eIF2α/ATF4 pathway; U266, 15 μM, 2 hours) of the same compound?
A: unchanged

Q: What about the ATF4 protein levels (eIF2α/ATF4 pathway; [2]) of the same compound?
A: increased ATF4 protein levels

Q: What about the eIF2α phosphorylation (eIF2α/ATF4 pathway; [2]) of the same compound?
A: induced eIF2α phosphorylation

Q: What about the relapse-free survival ([1]; "high atovaquone" (at least 100 days within the 150-day period) vs "low atovaquone") of the same compound?
A: significantly improved relapse-free survival

Q: And the overall survival ([1]; "high atovaquone" vs "low atovaquone")?
A: trend toward improved overall survival

Q: And the “total gp130 in other cell lines” value (gp130; MEF, SKBR3, MDA-MB-468, 25 μM, 6 or 12 hours)?
A: induced loss of total gp130 after prolonged treatment

Q: And the “total cellular gp130, time course” value (gp130; U266, 20 μM)?
A: not reduced except at much longer time points

From patent publication US10130590B2, “Methods of treating cancer with atovaquone-related compounds” (DANA-FARBER CANCER INSTITUTE, INC., priority 2013, dated 2018)
